Source: PubChem BioAssay AID330 (DTP/NCI, 2004)
Several values for one entry are separate records, joined by “and”; a condition that tells them apart may be missing. Equal values may be shown once. Inconclusive results and toxic doses are left out. How the source made its calls: active means survival T/C of 150% or more; inactive means T/C below 125% in these data.

System: P388 leukemia ip, CD2F1 mice, survival T/C
Test: NCI In Vivo Anticancer Drug Screen. Data for tumor model P388 Leukemia (intraperitoneal) in CD2F1 (CDF1) mice
Details: endpoint: median survival time, higher = longer survival
Outline: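 Mice carrying the transplanted tumor received test compound or vehicle. Survival was recorded in each group, and the value is the treated-group measurement divided by that of the vehicle-treated control group.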

[1] = dose: 60.0 mg/kg/injection, schedule: Q01DX005 (ip), vehicle: saline
[2] = dose: 50.0 mg/kg/injection, schedule: Q01DX005 (ip), vehicle: saline with Tween-80
[3] = dose: 100.0 mg/kg/injection, schedule: Q01DX005 (ip), vehicle: saline with Tween-80
[4] = dose: 200.0 mg/kg/injection, schedule: Q01DX005 (ip), vehicle: saline with Tween-80
[5] = dose: 50.0 mg/kg/injection, schedule: Q01DX009 (ip), vehicle: saline with Tween-80
[6] = dose: 100.0 mg/kg/injection, schedule: Q01DX009 (ip), vehicle: saline with Tween-80
[7] = dose: 200.0 mg/kg/injection, schedule: Q01DX009 (ip), vehicle: saline with Tween-80

Measured: T/C

N#CC(O)Cc1ccccc1 (centres undefined)
inactive: dose: 2.5 mg/kg/injection, schedule: Q04DX003 (ip), vehicle: other 110 % of control | dose: 5.0 mg/kg/injection, schedule: Q04DX003 (ip), vehicle: other 105 % of control | dose: 10.0 mg/kg/injection, schedule: Q04DX003 (ip), vehicle: other 105 % of control

CN1C(=O)C(CC(=O)O)NC1=S (centres undefined)
inactive: [1] 101 % of control | dose: 120.0 mg/kg/injection, schedule: Q01DX005 (ip), vehicle: saline 103 % of control | dose: 240.0 mg/kg/injection, schedule: Q01DX005 (ip), vehicle: saline 104 % of control

CCn1cnc(=O)[nH]c1=O
inactive: dose: 50.0 mg/kg/injection, schedule: Q01DX005 (ip), vehicle: Klucel (hydroxypropylcellulose) (HPC) 102 % of control | dose: 100.0 mg/kg/injection, schedule: Q01DX005 (ip), vehicle: Klucel (hydroxypropylcellulose) (HPC) 96 % of control | dose: 200.0 mg/kg/injection, schedule: Q01DX005 (ip), vehicle: Klucel (hydroxypropylcellulose) (HPC) 97 % of control

CC1(O)c2ccccc2-c2ccccc2C1(C)O (centres undefined)
inactive: [2] 97 % of control | [3] 100 % of control | [4] 90 % of control

Cc1cc(C2CCCCC2)n(O)c(=O)c1
inactive: dose: 25.0 mg/kg/injection, schedule: Q01DX005 (ip), vehicle: saline 100 % of control | dose: 50.0 mg/kg/injection, schedule: Q01DX005 (ip), vehicle: saline 99 % of control | dose: 100.0 mg/kg/injection, schedule: Q01DX005 (ip), vehicle: saline 106 % of control

CCOC(=O)Cc1ccc(-c2cn3c(n2)sc2ccccc23)cc1
inactive: dose: 50.0 mg/kg/injection, schedule: Q01DX009 (ip), vehicle: Klucel (hydroxypropylcellulose) (HPC) 112 % of control | dose: 100.0 mg/kg/injection, schedule: Q01DX009 (ip), vehicle: Klucel (hydroxypropylcellulose) (HPC) 103 % of control | dose: 200.0 mg/kg/injection, schedule: Q01DX009 (ip), vehicle: Klucel (hydroxypropylcellulose) (HPC) 100 % of control

CCCCCN(CCCCC)CC(O)c1c(Cl)ccc2ccccc12 (centres undefined)
inactive: dose: 12.5 mg/kg/injection, schedule: Q01DX005 (ip), vehicle: saline with Tween-80 106 % of control | dose: 25.0 mg/kg/injection, schedule: Q01DX005 (ip), vehicle: saline with Tween-80 103 % of control | [2] 103 % of control and 97 % of control | [3] 106 % of control | [4] 112 % of control

COSc1ccc([N+](=O)[O-])cc1
inactive: dose: 100.0 mg/kg/injection, schedule: Q04DX003 (ip), vehicle: Klucel (hydroxypropylcellulose) (HPC) 108 % of control | dose: 200.0 mg/kg/injection, schedule: Q04DX003 (ip), vehicle: Klucel (hydroxypropylcellulose) (HPC) 102 % of control | dose: 400.0 mg/kg/injection, schedule: Q04DX003 (ip), vehicle: Klucel (hydroxypropylcellulose) (HPC) 99 % of control

C1=CC(=NN=P(c2ccccc2)(c2ccccc2)c2ccccc2)C=C1
inactive: [5] 89 % of control | [6] 102 % of control | [7] 97 % of control

O=C(NCCCCCCNC(=O)C1CCCN1)C1CCCN1 (centres undefined)
inactive: dose: 15.0 mg/kg/injection, schedule: Q01DX005 (ip), vehicle: saline 103 % of control | dose: 30.0 mg/kg/injection, schedule: Q01DX005 (ip), vehicle: saline 96 % of control | [1] 100 % of control and 97 % of control

CSc1nccn2c(C)nnc12
inactive: dose: 100.0 mg/kg/injection, schedule: Q01DX001 (ip), vehicle: suspension in saline 92 % of control | dose: 200.0 mg/kg/injection, schedule: Q01DX001 (ip), vehicle: suspension in saline 100 % of control

C=CC(C)(CCC1C(C)=CCC2C(C)(C)CCCC12C)OC1OC(C)C(O)C(O)C1O (centres undefined)
inactive: dose: 19.0 mg/kg/injection, schedule: Q01DX005 (ip), vehicle: Klucel (hydroxypropylcellulose) (HPC) 102 % of control | dose: 20.0 mg/kg/injection, schedule: Q01DX005 (ip), vehicle: Klucel (hydroxypropylcellulose) (HPC) 97 % of control | dose: 21.0 mg/kg/injection, schedule: Q01DX005 (ip), vehicle: Klucel (hydroxypropylcellulose) (HPC) 100 % of control | dose: 38.0 mg/kg/injection, schedule: Q01DX005 (ip), vehicle: Klucel (hydroxypropylcellulose) (HPC) 101 % of control | dose: 40.0 mg/kg/injection, schedule: Q01DX005 (ip), vehicle: Klucel (hydroxypropylcellulose) (HPC) 103 % of control | dose: 42.0 mg/kg/injection, schedule: Q01DX005 (ip), vehicle: Klucel (hydroxypropylcellulose) (HPC) 98 % of control | dose: 76.0 mg/kg/injection, schedule: Q01DX005 (ip), vehicle: Klucel (hydroxypropylcellulose) (HPC) 98 % of control | dose: 80.0 mg/kg/injection, schedule: Q01DX005 (ip), vehicle: Klucel (hydroxypropylcellulose) (HPC) 98 % of control | dose: 84.0 mg/kg/injection, schedule: Q01DX005 (ip), vehicle: Klucel (hydroxypropylcellulose) (HPC) 102 % of control | dose: 152.0 mg/kg/injection, schedule: Q01DX005 (ip), vehicle: Klucel (hydroxypropylcellulose) (HPC) 108 % of control | dose: 160.0 mg/kg/injection, schedule: Q01DX005 (ip), vehicle: Klucel (hydroxypropylcellulose) (HPC) 93 % of control | dose: 168.0 mg/kg/injection, schedule: Q01DX005 (ip), vehicle: Klucel (hydroxypropylcellulose) (HPC) 98 % of control

COc1ccc(/C(C#N)=C/c2ccccc2)cc1
inactive: dose: 6.25 mg/kg/injection, schedule: Q01DX009 (ip), vehicle: suspension in saline 99 % of control and 103 % of control and 107 % of control | dose: 12.5 mg/kg/injection, schedule: Q01DX009 (ip), vehicle: suspension in saline 100 % of control and 108 % of control and 114 % of control | dose: 25.0 mg/kg/injection, schedule: Q01DX009 (ip), vehicle: saline with Tween-80 86 % of control | dose: 25.0 mg/kg/injection, schedule: Q01DX009 (ip), vehicle: suspension in saline 100 % of control and 92 % of control and 98 % of control | [5] 91 % of control | dose: 50.0 mg/kg/injection, schedule: Q01DX009 (ip), vehicle: suspension in saline 107 % of control and 124 % of control | [6] 91 % of control | [7] 101 % of control

COc1cc(C=C2C(=O)C=CC2=O)cc(OC)c1O
inactive: dose: 1.25 mg/kg/injection, schedule: Q04DX002 (ip), vehicle: saline with Tween-80 102 % of control | dose: 2.5 mg/kg/injection, schedule: Q04DX002 (ip), vehicle: saline with Tween-80 103 % of control | dose: 5.0 mg/kg/injection, schedule: Q04DX002 (ip), vehicle: saline with Tween-80 102 % of control

O=C(c1ccccc1)c1ccccc1NCC(O)COc1ccc(Cl)cc1C(=O)c1ccccc1 (centres undefined)
inactive: dose: 60.0 mg/kg/injection, schedule: Q01DX005 (ip), vehicle: saline with Tween-80 91 % of control and 96 % of control | dose: 120.0 mg/kg/injection, schedule: Q01DX005 (ip), vehicle: saline with Tween-80 95 % of control | dose: 240.0 mg/kg/injection, schedule: Q01DX005 (ip), vehicle: saline with Tween-80 88 % of control and 90 % of control

C/C(=N\SC(c1ccccc1)(c1ccccc1)c1ccccc1)c1ccccc1
inactive: dose: 100.0 mg/kg/injection, schedule: Q01DX001 (ip), vehicle: saline with Tween-80 95 % of control | dose: 200.0 mg/kg/injection, schedule: Q01DX001 (ip), vehicle: saline with Tween-80 88 % of control

O=C1SC/C(=N\N=c2/scc(-c3ccc(Br)cc3)n2-c2ccc(Br)cc2)N1Cc1ccccc1
inactive: dose: 100.0 mg/kg/injection, schedule: Q04DX002 (ip), vehicle: Klucel (hydroxypropylcellulose) (HPC) 91 % of control | dose: 200.0 mg/kg/injection, schedule: Q04DX002 (ip), vehicle: Klucel (hydroxypropylcellulose) (HPC) 92 % of control | dose: 400.0 mg/kg/injection, schedule: Q04DX002 (ip), vehicle: Klucel (hydroxypropylcellulose) (HPC) 90 % of control

[Cl][Fe]([Cl])([Cl])[Cl].c1ccc(C[n+]2ccccc2)cc1
inactive: dose: 6.25 mg/kg/injection, schedule: Q01DX009 (ip), vehicle: saline 108 % of control | dose: 12.5 mg/kg/injection, schedule: Q01DX009 (ip), vehicle: saline 104 % of control | dose: 25.0 mg/kg/injection, schedule: Q01DX009 (ip), vehicle: saline 117 % of control

O=C(O)c1c[n+]([O-])ccc1OCc1ccccc1
inactive: dose: 100.0 mg/kg/injection, schedule: Q04DX003 (ip), vehicle: saline 100 % of control | dose: 200.0 mg/kg/injection, schedule: Q04DX003 (ip), vehicle: saline 98 % of control | dose: 400.0 mg/kg/injection, schedule: Q04DX003 (ip), vehicle: saline 94 % of control

COCCCn1c(-c2ccc(Cl)cc2)nn2c(=O)c3ccccc3nc2c1=O
inactive: dose: 50.0 mg/kg/injection, schedule: Q01DX009 (ip), vehicle: saline 97 % of control | dose: 100.0 mg/kg/injection, schedule: Q01DX009 (ip), vehicle: saline 92 % of control | dose: 200.0 mg/kg/injection, schedule: Q01DX009 (ip), vehicle: saline 92 % of control
